In US12252493B2, “Imidazo[1,2-c]pyrimidine derivatives as PRC2 inhibitors for treating cancer” (Mirati Therapeutics, Inc., priority 2019, dated 2025) one finds IC50 data, which are given here for ten molecules.

Test [1] has as its system PRC2-mediated histone H3 methylation (H3 Lys27 trimethylation) in Pfeiffer cells expressing mutant EZH2 (A677G). The test can be described thus: Tri-Methyl Histone H3 (Lys 27) sandwich ELISA in Pfeiffer cells. The test is classed as cell-based, human. Particulars: read-out: IC50, Inhibition of EZH2-mediated Histone H3 Trimethylation. The source says: The Pfeiffer cell line was established from a […] from a patient having metastatic diffuse large B-cell lymphoma (DLBCL). This cell line expresses a mutant form of the EZH2 enzyme (A677G) that results in enhanced EZH2 activity leading to increased methylation of histone H3 Lys27. Increased trimethylation of histone H3 Lys27 is believed to be implicated in tumorgenesis and poor clinical prognosis in lymphomas (McCabe et al., (2012) Nature 492:108-112).
Inhibition of PRC2-mediated histone H3 methylation by compounds of Formula (I) was measured by ELISA using a Tri-Methyl Histone H3 (Lys 27) Sandwich ELISA Kit (Cell Signaling Tech #7866C) in accordance with the manufacturer's instructions. Briefly, Pfeiffer cells were cultured in RPMI medium supplemented with 10% fetal bovine serum and 1% penicillin and 1% streptomycin in 96 well culture plates at 37° C. to a density of 8000 cells/90 μl/well and the cells were harvested. A series of 3-fold serial dilutions of each test compound of Formula (I) were prepared in RPMI medium and added to the cells at final concentrations ranging from 1 μM to 0.15 nM. The plates were incubated at 37° C. for 96 hours.
After incubation, the cells were pelleted by centrifugation in a pre-cooled 4° C. rotor at 1,100 rpm for 10 min and the supernatant was removed by aspiration. The cell pellet was resuspended in 55 μl of Lysis Buffer (0.4M HCl) and incubated on ice with periodic shaking for 30 minutes. The lysed cells were subjected to centrifugation at 4,200 rpm for 10 min at 4° C. and the supernatant containing acid-soluble proteins was collected and the remainder discarded. The acid-soluble proteins were brought to a neutral pH by the addition of 20 μl of Neutralization Buffer (1 M Sodium phosphate, dibasic (pH 12.5), 2.5 mM DTT and 1 mM PMSF) and the neutralized lysates were analyzed by ELISA.
A 65 μl aliquot of each cell lysate was added to a well of a microwell strip, the microwells were sealed using tape and incubated either at 37° C. for two hours or at 4° C. overnight. After incubation, the tape was removed at the microwells were washed four times using 200 μl of 1× Wash Buffer. To each washed microwell, a 100 μl aliquot of an anti-trimethyl histone H3 Lys27 Detection Antibody solution was added and the microwells were incubated at 37° C. for one hour. The Detection Antibody solution was removed by aspiration and the wells were washed four times each using 200 μl of 1× Wash Buffer.
A 100 μl aliquot of an HRP-linked secondary antibody was added to each well, the wells were sealed with tape and incubated at 37° C. for 30 min. The HRP-linked secondary antibody solution was removed by aspiration and the wells were washed four times using 200 μl of 1× Wash Buffer. A 100 μl aliquot of a TMB substrate was added to each well, the wells were sealed with tape and incubated at 37° C. for 10 min or 25° C. for 30 min. The reaction was stopped by the addition of 100 μl aliquot of a STOP solution and the plate was shaken briefly. The degree of histone H3 trimethylation was determined using a spectrophotometric readout by measuring the absorbance at 450 nm and then calculating the amount of trimethylated histone H3. Key: A=≤250 nM; B=>250 nM-≤500 nM; and C=>500 nM-≤5 μM.
(In general: In an ELISA, binding on a coated surface is turned into a signal by an enzyme label.)

The target of test [2] is purified human, His-tagged PRC2 complex (Homo sapiens (Human), UniProt O75530). The test can be described thus: Hot Spot HMT assay of PRC2 enzymatic activity (tritiated methyl transfer from SAM to core histone). Format: biochemical. The following applies: 10 nM purified PRC2 complex, 0.05 mg/ml core histone H3, 1 uM 3H-SAM, 1 hr at 30° C. As for the experimental part:
Ten-point dose-response curves for compounds of the present invention were determined using a Hot Spot HMT assay (Reaction Biology Corp; see Horiuchi et al., Assay Drug Dev Technol. (2013) 4: 227-236 doi: 10.1089/adt.2012.480). The assay uses purified human, His-tagged PRC2 complex, including N-terminal His-tagged EZH2 enzyme, N-terminal Flag-tagged embryonic ectoderm development protein (EED), N-terminal His-tagged suppressor of zeste 12 (SUZ12), N-terminal His-tagged AEBP2, and N-terminal His-tagged RbAp48. In this assay, the transfer of the tritiated methyl group from radiolabeled S-adenosyl methionine (SAM) to purified core histone protein by EZH2 is quantitated after filtration to determine the activity of the core PRC2 complex in the presence and absence of compound.
Briefly, compounds of the present invention were solubilized in DMSO and a series of 10, three-fold serial dilutions were made for each compound in 15% DMSO. The initial starting concentration for the serial dilutions of each compound was 1.0 μM. Control samples lacking compound, EZH2 enzyme or various reaction components also were prepared and processed in parallel with compound test samples. SAH (S-(5-adenosyl)-L-homocysteine) was used as a positive control for assay validation.
An aliquot of each serial dilution of test compound was added to deep 384 well plate using Acoustic Technology instrument (Echo 550, LabCyte) containing reaction buffer (50 mM Tris-HCl (pH 8.)), 0.01% Brij35, 1 mM EDTA, 1 mM DTT, 1 mM PMSF and 1% DMSO), 10 nM purified PRC2 complex and 0.05 mg/ml core histone H3 in a 5 μl volume. The reaction was mixed gently and then pre-incubated for 20 min at 30° C. The enzymatic reaction was initiated by adding 1 uM S-Adenosyl-L-[methyl ^3H]methionine and incubated for 1 hr at 30° C. After 1 hr, the reaction product was detected using a filter binding method and the amount of tritiated H3 core histone was quantitated using a scintillation counter. The IC50 value for each compound was determined from each 10-point dose-response curve using GraphPad Prism software and the results for exemplary compounds of Formula (I) are shown in Table 5. Key: A=≤250 nM; B=>250 nM—≤500 nM; and C=>500 nM—≤2 μM.

In test [3] the test system is Karpas 422 cells expressing mutant EZH2 (Y641N). As to the kind of experiment: Karpas 422 cell viability (Cell Titre Glo) assay. The test is classed as cell-based, human. Particulars: CTG viability, time point (Day 4, Day 7 or Day 11) not given, read-out: IC50, Inhibiting Proliferation of Cells Expressing an Activating Mutant Form of EZH2. The procedure: Karpas 422 cell line is a human B cell non-Hodgkin's lymphoma cell line established from a patient having DLBCL. This EZH2 heterozygotic cell line expresses a mutant form of EZH2 enzyme (Y641N) that increases histone H3 methylation and this mutation has been implicated in the tumorgenesis of lymphomas, such as DLBCL.
Karpas 422 cells (PHE cat no., 06101702) were cultured in RPMI medium supplemented with 20% fetal bovine serum and 1% penicillin/1% streptomycin and plated at a density of 1000 cells/90 μl/well in 96 well white assay plates. A dose response curve for compounds of the present invention was determined by adding a 10 μl aliquot of stock solutions of varying concentrations of compounds to the same medium in each well, over a concentration range of 10 μM using 3-fold dilutions to a final concentration of 1.5 nM. The plates were incubated at 37° C. for predetermined time periods, Day 4, Day 7, or Day 11, and the viability of the cells was measured using a CTG assay kit (Cell Titre Glo; Promega cat. no G7573) on Day 4 and Day 7 in accordance with the manufacturer's instructions.
For the viability assay for the Day 11 plates, the plates were subjected to centrifugation at 1100 rpm for five minutes on Day 7 and the supernatant was removed by aspiration. The cells were resuspended in 90 μl aliquot of the appropriate growth medium lacking the compound followed by addition of 10 μl of a 10× stock of the same compound at the same concentration. The viability of the Day 11 cells was measured using the CTG assay kit described above in accordance with the manufacturer's instructions. The IC50 values for each compound at each predetermined time point were calculated using Graph pad PRISM software and the results are shown in Table 7. Key: A=≤250 nM; B=>250 nM-≤500 nM; C=>500 nM-≤5 μM and N.D.=not determined.

Setting [4] is: Homo sapiens, Pfeiffer cells, 96 hours incubation, ELISA.
Where [5] appears, read: read-out: IC50, Inhibition of PRC2-mediated Enzymatic Activity.

Structures are written as SMILES. Like-named read-outs stand apart in the source and are kept apart here.

purified human, His-tagged PRC2 complex, sequence (Q15910 whole entry): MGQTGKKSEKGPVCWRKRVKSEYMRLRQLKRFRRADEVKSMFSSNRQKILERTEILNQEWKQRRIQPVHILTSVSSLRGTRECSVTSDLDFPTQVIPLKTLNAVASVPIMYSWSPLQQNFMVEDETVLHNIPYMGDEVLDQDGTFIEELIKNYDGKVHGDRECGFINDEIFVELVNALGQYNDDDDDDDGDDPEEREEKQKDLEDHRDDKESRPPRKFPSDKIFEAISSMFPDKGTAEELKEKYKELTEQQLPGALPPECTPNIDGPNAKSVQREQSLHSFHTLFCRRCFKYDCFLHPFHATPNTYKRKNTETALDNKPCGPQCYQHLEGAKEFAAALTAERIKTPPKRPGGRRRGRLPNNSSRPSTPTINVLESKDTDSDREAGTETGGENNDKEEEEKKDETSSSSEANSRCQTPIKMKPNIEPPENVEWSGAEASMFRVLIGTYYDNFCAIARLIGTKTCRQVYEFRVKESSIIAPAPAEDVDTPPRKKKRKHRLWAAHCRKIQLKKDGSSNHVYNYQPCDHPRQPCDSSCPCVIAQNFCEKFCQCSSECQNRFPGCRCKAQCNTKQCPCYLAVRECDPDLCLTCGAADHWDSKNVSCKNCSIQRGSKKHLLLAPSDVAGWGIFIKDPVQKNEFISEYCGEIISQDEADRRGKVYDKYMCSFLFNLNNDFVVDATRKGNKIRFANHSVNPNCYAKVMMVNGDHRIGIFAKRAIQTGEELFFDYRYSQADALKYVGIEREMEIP
purified human, His-tagged PRC2 complex, sequence (O75530 whole entry): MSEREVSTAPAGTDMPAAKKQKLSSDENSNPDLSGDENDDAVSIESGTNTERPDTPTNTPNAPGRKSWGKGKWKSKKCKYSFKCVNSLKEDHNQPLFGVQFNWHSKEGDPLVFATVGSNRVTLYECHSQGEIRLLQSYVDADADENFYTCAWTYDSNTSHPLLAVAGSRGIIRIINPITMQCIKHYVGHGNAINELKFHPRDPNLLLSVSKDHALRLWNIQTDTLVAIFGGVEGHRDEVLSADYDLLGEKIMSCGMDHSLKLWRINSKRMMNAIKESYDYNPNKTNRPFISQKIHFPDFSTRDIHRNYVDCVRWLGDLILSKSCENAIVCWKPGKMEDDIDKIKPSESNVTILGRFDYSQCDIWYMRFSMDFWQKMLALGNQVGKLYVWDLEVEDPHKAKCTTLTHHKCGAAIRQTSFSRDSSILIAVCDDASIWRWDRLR
purified human, His-tagged PRC2 complex, sequence (Q15022 whole entry partner): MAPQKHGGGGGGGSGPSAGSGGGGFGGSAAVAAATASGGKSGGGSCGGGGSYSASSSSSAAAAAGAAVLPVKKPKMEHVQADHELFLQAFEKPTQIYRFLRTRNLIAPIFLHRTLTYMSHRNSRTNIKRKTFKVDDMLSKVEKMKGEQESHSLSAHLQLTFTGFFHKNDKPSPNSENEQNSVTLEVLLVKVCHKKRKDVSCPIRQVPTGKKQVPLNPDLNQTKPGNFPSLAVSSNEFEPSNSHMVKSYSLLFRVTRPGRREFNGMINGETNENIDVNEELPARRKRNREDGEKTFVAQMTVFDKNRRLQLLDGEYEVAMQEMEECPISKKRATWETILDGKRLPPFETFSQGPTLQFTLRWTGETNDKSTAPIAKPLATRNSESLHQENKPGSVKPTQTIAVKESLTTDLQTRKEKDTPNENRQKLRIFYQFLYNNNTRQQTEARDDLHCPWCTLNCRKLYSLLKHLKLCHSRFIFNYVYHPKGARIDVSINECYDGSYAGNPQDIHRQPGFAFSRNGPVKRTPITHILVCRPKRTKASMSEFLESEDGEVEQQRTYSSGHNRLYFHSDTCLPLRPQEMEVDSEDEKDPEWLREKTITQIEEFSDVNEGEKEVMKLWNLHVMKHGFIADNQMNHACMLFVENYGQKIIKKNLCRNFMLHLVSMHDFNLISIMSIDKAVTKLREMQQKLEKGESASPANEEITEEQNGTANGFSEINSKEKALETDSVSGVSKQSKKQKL
purified human, His-tagged PRC2 complex, sequence (Q6ZN18 whole entry partner): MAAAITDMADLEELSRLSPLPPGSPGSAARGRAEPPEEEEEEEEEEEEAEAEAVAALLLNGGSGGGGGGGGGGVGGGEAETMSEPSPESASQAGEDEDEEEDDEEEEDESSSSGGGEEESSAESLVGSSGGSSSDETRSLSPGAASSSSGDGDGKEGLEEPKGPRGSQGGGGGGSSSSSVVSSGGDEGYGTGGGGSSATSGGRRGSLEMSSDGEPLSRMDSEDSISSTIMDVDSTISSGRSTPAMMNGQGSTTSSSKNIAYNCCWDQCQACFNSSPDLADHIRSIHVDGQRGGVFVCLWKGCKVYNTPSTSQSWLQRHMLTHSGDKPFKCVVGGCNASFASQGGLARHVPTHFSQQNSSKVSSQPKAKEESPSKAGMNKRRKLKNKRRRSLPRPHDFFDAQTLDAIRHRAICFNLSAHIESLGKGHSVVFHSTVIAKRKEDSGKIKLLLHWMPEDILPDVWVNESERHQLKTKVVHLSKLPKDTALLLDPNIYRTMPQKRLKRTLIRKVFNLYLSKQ
purified human, His-tagged PRC2 complex, sequence (Q09028 whole entry partner): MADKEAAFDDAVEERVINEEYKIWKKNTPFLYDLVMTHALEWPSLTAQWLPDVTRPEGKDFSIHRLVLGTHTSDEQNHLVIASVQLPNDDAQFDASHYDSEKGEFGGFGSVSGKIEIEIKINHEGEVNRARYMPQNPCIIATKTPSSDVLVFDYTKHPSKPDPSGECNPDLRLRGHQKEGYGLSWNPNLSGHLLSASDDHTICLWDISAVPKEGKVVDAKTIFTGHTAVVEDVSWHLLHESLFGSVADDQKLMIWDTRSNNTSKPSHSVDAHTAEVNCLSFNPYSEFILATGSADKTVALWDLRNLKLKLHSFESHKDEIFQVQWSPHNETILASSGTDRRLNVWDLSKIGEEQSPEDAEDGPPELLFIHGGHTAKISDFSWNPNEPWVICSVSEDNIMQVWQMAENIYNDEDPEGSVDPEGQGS

For the molecule `COc1ccc(-c2cnc(NCc3c(F)ccc4c3CCO4)n3cc(CN)nc23)c(C)n1` [Example 20, 2-(aminomethyl)-N-((5-fluoro-2,3-dihydrobenzofuran-4-yl)methyl)-8-(6-methoxy-2-methylpyridin-3-yl)imidazo[1,2-c]pyrimidin-5-amine], the IC50 in test [1] (setting [4]) is 250 to 500 nM; in test [2] (setting [5]), less than 250 nM; in test [3] (Homo sapiens) it was less than 250 nM.

As for `Cc1cccc(-c2cnc(NCc3c(F)ccc4c3CCO4)n3cc(CN)nc23)c1` [Example 21, 2-(aminomethyl)-N-((5-fluoro-2,3-dihydrobenzofuran-4-yl)methyl)-8-(m-tolyl)imidazo[1,2-c]pyrimidin-5-amine], the IC50 in test [1] (setting [4]) lay in the range of 500 to 5000 nM; in test [2] (setting [5]) it was 500 to 2000 nM; in test [3] (Homo sapiens), 500 to 5000 nM.

In the case of `NCc1cn2c(NCc3c(F)ccc4c3CCO4)ncc(-c3ccccc3Cl)c2n1` [Example 22, 2-(aminomethyl)-8-(2-chlorophenyl)-N-((5-fluoro-2,3-dihydrobenzofuran-4-yl)methyl)imidazo[1,2-c]pyrimidin-5-amine], the IC50 is 500 to 5000 nM in test [1] (setting [4]), 500 to 2000 nM in test [2] (setting [5]) and 500 to 5000 nM in test [3] (Homo sapiens).

Consider `Cc1cc(-c2cnc(NCc3cccc4c3CCO4)n3cc(CN)nc23)n(C)n1` [Example 23, 2-(aminomethyl)-N-((2,3-dihydrobenzofuran-4-yl)methyl)-8-(1,3-dimethyl-1H-pyrazol-5-yl)imidazo[1,2-c]pyrimidin-5-amine], for which the results for the IC50 in test [1] (setting [4]), in test [2] (setting [5]) and in test [3] (Homo sapiens) were 500 to 5000 nM, 500 to 2000 nM and 500 to 5000 nM, respectively.

With `Cc1cc(-c2cnc(NCc3c(F)ccc4occc34)n3cc(CN)nc23)n(C)n1` [Example 24], the IC50 in test [1] (setting [4]) lay in the range of 250 to 500 nM; in test [2] (setting [5]), 500 to 2000 nM; in test [3] (Homo sapiens), 250 to 500 nM.

On to `Cc1cc(-c2cnc(NCc3c(F)ccc4c3CCO4)n3cc(CNCCS(=O)(=O)F)nc23)n(C)n1` [Example 27, 2-(((8-(1,3-dimethyl-1H-pyrazol-5-yl)-5-(((5-fluoro-2,3-dihydrobenzofuran-4-yl)methyl)amino)imidazo[1,2-c]pyrimidin-2-yl)methyl)amino)ethane-1-sulfonyl fluoride], for which the IC50 fell in the range of 500 to 5000 nM in test [1] (Homo sapiens, Pfeiffer, 96 h); 500 to 2000 nM in test [2] (IC50, Inhibition of PRC2-mediated Enzymatic Activity); 500 to 5000 nM in test [3] (Homo sapiens).

On to `Cc1cc(-c2cnc(NCc3c(F)ccc4c3CCO4)n3cc(CN(CCS(=O)(=O)F)CCS(=O)(=O)F)nc23)n(C)n1` [Example 28, 2,2′-(((8-(1,3-dimethyl-1H-pyrazol-5-yl)-5-(((5-fluoro-2,3-dihydrobenzofuran-4-yl)methyl)amino)imidazo[1,2-c]pyrimidin-2-yl)methyl)azanediyl)bis(ethane-1-sulfonylfluoride)], for which the IC50 is 500 to 5000 nM in test [1] (Pfeiffer cells, 96 hours incubation, ELISA); 500 to 2000 nM in test [2] (setting [5]); 500 to 5000 nM in test [3].

`Cn1nccc1-c1cnc(NCc2c(F)ccc3c2CCO3)n2cc(CN3CCC3)nc12` [Example 29, 2-(azetidin-1-ylmethyl)-N-((5-fluoro-2,3-dihydrobenzofuran-4-yl)methyl)-8-(1-methyl-1H-pyrazol-5-yl)imidazo[1,2-c]pyrimidin-5-amine]: the IC50 in test [1] (setting [4]) was in the range of 500 to 5000 nM; in test [2] (setting [5]), 500 to 2000 nM; in test [3] (Homo sapiens) it was 500 to 5000 nM.

Regarding `Cc1cc(-c2cnc(NCc3c(F)ccc4c3CCO4)n3cc(CNC4CCC4)nc23)n(C)n1` [Example 30, 2-((cyclobutylamino)methyl)-8-(1,3-dimethyl-1H-pyrazol-5-yl)-N-((5-fluoro-2,3-dihydrobenzofuran-4-yl)methyl)imidazo[1,2-c]pyrimidin-5-amine], the IC50 in test [1] (setting [4]) was 250 to 500 nM; in test [2] (setting [5]) it was 500 to 2000 nM; in test [3] (Homo sapiens) it was less than 250 nM.

Regarding `Cc1cc(-c2cnc(NCc3c(F)ccc4c3CCO4)n3cc(CN4CC(O)C4)nc23)n(C)n1` [Example 31, 1-((8-(1,3-dimethyl-1H-pyrazol-5-yl)-5-(((5-fluoro-2,3-dihydrobenzofuran-4-yl)methyl)amino)imidazo[1,2-c]pyrimidin-2-yl)methyl)azetidin-3-ol], the IC50 fell in the range of 500 to 5000 nM in test [1] (setting [4]), 500 to 2000 nM in test [2] (setting [5]) and 500 to 5000 nM in test [3] (Homo sapiens).
